Results: patent US7456152B2, “Peptide inhibitors of thrombin as potent anticoagulants” (priority 2004, dated 2008)
“And” between values parts separate entries of the source, which are not always exact repeats. Equal entries are not always repeated. Where two headings read alike, the source gives them in different places. Ends that are not written are not given here.

What was measured:
human α-thrombin [1] = biological target: T1, human α-thrombin (Homo sapiens, UniProt P00734); details: data from the published reports of DiMaio and Maraganore; read-out: Clotting assay, 37° C. (IC50); cited from earlier work
T1 construct: Bovine and human α-thrombins were supplied by Haematologic Technologies Inc (VT, USA); cleaved off efficiently by thrombin to generate the free N-terminus of the A-chain of human thrombin; purchased Haematologic Technologies Inc (VT, USA)

human α-thrombin [2] = biological target: T1, human α-thrombin; details: data from the published reports of DiMaio and Maraganore; read-out: Amidolytic assay (Ki); cited from earlier work
human α-thrombin [3] = biological target: T1, human α-thrombin; experiment: Clotting assay: fibrinogen clotting by human thrombin, concentration doubling the clotting time (DCT) = IC50; assay type: biochemical
Method: The clotting assays were carried out by use of the protocols described previously (DiMaio, J., Gibbs, B., Munn, D., Lefebvre, J., Ni, F., and Konishi, Y. (1990) J. Biol. Chem. 265, 21698-21703; and Witting, J. I., Bourdon, P., Brezniak, D. V., Maraganore, J. M., and Fenton, J. W. (1992) Biochem. J. 283 (Pt 3), 737-743) The assay employs bovine plasma fibrinogen dissolved at 0.1% in 50 mM Tris-Cl, 100 mM NaCl, 0.1% PEG-8000 at pH 7.6 (i.e. the clotting buffer). Each assay mixture contained a certain concentration of the peptide, and the reaction was started by the addition of human thrombin to a final concentration of 0.1 NIH unit/ml. Optical absorbance of the assay mixtures was measured at 420 nm and 37° C. using the Spectramax™ plate reader. The onset clotting time was determined as an intersection of the baseline and the initial slope of the O.D. change as a result of fibrin clot formation. The concentration of a peptide needed to double the clotting time (DCT) was defined as IC50. Peptide concentrations were determined by comparing the O.D.280 values of peptide stock solutions in the clotting buffer (vide supra) with the predicted extinction coefficient for each peptide (Gill, S. C. and von Hippel, P. H. (1989) Anal. Biochem. 182, 319-326).
The peptide concentration for doubling the clotting time (DCT) was defined as the IC50 value.

human α-thrombin [4] = biological target: T1, human α-thrombin; experiment: Inhibition of the amidolytic activity of thrombin (Tos-Gly-Pro-Arg-p-nitroanilide hydrolysis); assay type: biochemical
Method: Kinetics of thrombin-catalyzed hydrolysis of the chromogenic substrate Tos-Gly-Pro-Arg-p-nitroanilide were followed by absorbance at 405 nm on a Spectramax plate reader thermostated at either 25° C. or 37° C. according to the method of Maragnore et al (supra). The concentrations of Tos-Gly-Pro-Arg-p-nitroanilide ranged from 2 to 400 μM. Initial rates were calculated under conditions of <15% hydrolysis of the total substrate. The KM and Vmax values were calculated accordingly and kcat values were determined by dividing Vmax by the enzyme (thrombin) concentration. The inhibition assays were performed in the clotting buffer with a certain fixed concentration of α-thrombin (˜0.3 nM) such that linear progress curves were achieved within at least 15 min in the absence of the inhibition. The total volume of the solution was fixed at 200 μl. Reactions were initiated by addition of the chromogenic substrate to the wells containing thrombin and a certain concentration of the peptide inhibitors premixed for less than 2 min. Alternatively, the substrate was first mixed with the peptide inhibitor and the total volume was adjusted to 120 μL using the clotting buffer. Eighty microliters of human α-thrombin in the clotting buffer (˜0.3 nM final concentration) was added to initiate the reaction. The concentration of the peptides ranged from 0.5 nM to 10 μM. Kinetics data from initial rate experiments were used to construct Lineweaver-Burke plot; i.e. the relationship of (substrate concentration)^−1 versus (initial velocity)^−1 which. were analysed by linear regression with MicroCal Origin 4.1 program (MicroCal, MD) or using the GraphPad Prism software. The Ki values of the inhibitors were determined using the equation: Ki=[I]/{(SL0/SL1)−1}, where
[I] is the inhibitor concentration,
SL0 is the slope of the reaction in the absence of inhibitors, and
SL1 is the slope of the reaction in the presence of the inhibitor.
Alternatively, Dixon plots of inverse velocity versus the inhibitor concentrations were generated with the Sigmaplot™ software. Every Dixon plot contained an array of data corresponding to different substrate concentrations and the Ki values were determined from the intersections. Following Peptide Cleavage by HPLC

human α-thrombin [5] = biological target: T1, human α-thrombin; experiment: Peptide cleavage by thrombin followed by HPLC; assay type: biochemical
Method: Previously reported methods (DiMaio, J., Gibbs, B., Munn; D., Lefebvre, J., Ni, F., and Konishi, Y. (1990) J. Biol. Chem. 265, 21698-21703; and Witting, J. I., Bourdon, P., Brezniak, D. V., Maraganore, J. M., and Fenton, J. W. (1992) Biochem. J. 283 (Pt 3), 737-743) were employed with some modifications (as detailed in the Results section and FIG. 18) to determine whether some bivalent peptides are cleaved by thrombin. Each peptide was dissolved in the clotting buffer at a final concentration of 2.0 μM and incubated at 25° C. with or without 2 μM of human α-thrombin for up to 40 hrs. The samples were then boiled for 2 min to stop the reaction, and centrifuged. The supernatant was acidified by addition of concentrated acetic acid before being loaded on an analytical HPLC C18 column and eluted with a linear gradient of 0%-50% (v/v) acetonitrile.
(§1) The FN22 peptide was incubated with thrombin at 25° C. in order to investigate the stability of the peptide in complex with thrombin. The progress of peptide cleavage by thrombin was monitored and analyzed through the HPLC profiles of the FN22 peptide in the absence or presence of thrombin for different incubation times. […] In the clotting assay, the FN22 peptide at a concentration of 400 nM was premixed with thrombin for different times of incubation before initiating the clotting reaction. […]

human α-thrombin [6] = biological target: T1, human α-thrombin; experiment: Stability of peptides pre-incubated with thrombin, read by the clotting assay; assay type: biochemical; details: 30 hrs of incubation, 25° C.
Method: as §1, with “reaction. The cleavage of the peptide by thrombin is indicated by a reduced clotting time with increasing incubation times.” for “reaction.”
In FIG. 18C, curve (1) represents the clotting assay curve recorded for a freshly-prepared stock solution of thrombin in the absence of peptide inhibitors, curves (2) and (3) represent the clotting curves recorded under the same condition as in (1) except that thrombin stood at 4° C. and 25° C., respectively, for 30 hrs, curves (4) and (5) represent the clotting curves recorded under the same condition as that in (3) except that the FN22 peptide (400 nM, curve 4) and FD22 (100 nM, curve 5) were mixed with thrombin during incubation, and curves (6) and (7) represent the clotting curves recorded under the same condition as that in (3) except that FN22 (400 nM, curve 6) and FD22 (100 nM, curve 7) were freshly-prepared intact peptides. […]

human α-thrombin [7] = biological target: T1, human α-thrombin; experiment: Digestion of 15N-labelled FD22 at the Arg(P1)-Pro(P1′) bond by human α-thrombin; assay type: biochemical; details: ~1 mM 15N-labelled peptide, 5 μM human α-thrombin
Method: After the peptide was incubated with thrombin at 25° C. for 40 hrs, around 90% of the intact FD22 peptide still remained as shown by use of HPLC analysis (FIG. 18B). In the clotting assay, the FD22 peptide at 100 nM was premixed with thrombin for different times before initiation of clotting. The peptide thus prepared had the clotting time reduced by only 12% after 30 hrs of incubation with thrombin. Indeed, the ^15N-labelled FD22 with a concentration of ˜1 mM (FIG. 16D) was digested completely at the Arg(P1)-Pro(P1′) bond by a 5 μM concentration of human α-thrombin only after more than 60 hrs of incubation.

[8] = Amidolytic assay, 25° C. (Ki, nM), Tos-Gly-Pro-Arg-pNA, 25° C.

Compound: dFPRPQSHNDGDFEEIPEEYL [P53^(e)]
- IC50 (human α-thrombin [1]): 4.1 ± 0.8 nM
- Ki (human α-thrombin [2]): 2.8 ± 0.9 nM

Compound: CC[C@H](C)[C@H](NC(=O)[C@H](CCC(N)=O)NC(=O)[C@@H]1CCCN1C(=O)[C@H](CCCNC(=N)N)NC(=O)[C@@H]1CCCN1C(=O)[C@H](CC(N)=O)NC(=O)[C@@H](N)Cc1ccccc1)C(=O)N[C@@H](Cc1c[nH]cn1)C(=O)N[C@@H](CC(N)=O)C(=O)N[C@@H](CC(=O)O)C(=O)NCC(=O)N[C@@H](CC(=O)O)C(=O)N[C@@H](Cc1ccccc1)C(=O)N[C@@H](CCC(=O)O)C(=O)N[C@@H](CCC(=O)O)C(=O)N[C@H](C(=O)N1CCC[C@H]1C(=O)N[C@@H](CCC(=O)O)C(=O)N[C@@H](CCC(=O)O)C(=O)N[C@@H](Cc1ccc(O)cc1)C(=O)N[C@@H](CC(C)C)C(=O)N[C@@H](CCC(N)=O)C(=O)O)[C@@H](C)CC [FN22-I]
- IC50 (human α-thrombin [3]): 45 nM
- Ki (human α-thrombin [4]; [8]): 360 nM

Compound: WDPRPQLHNDGDFEPIPEEYLQ [WD22-L-P]
- IC50 (human α-thrombin [3]): ~26 nM and 26 nM
- Ki (human α-thrombin [4]; [8]): 39 ± 4 nM

Compound: WDPRPQRHNDGDYEPIPEEYLQ [WD22-R-YP]
- IC50 (human α-thrombin [3]): 4.5 ± 2 nM
- Ki (human α-thrombin [4]): 358 ± 23 nM

Compound: CC[C@H](C)[C@H](NC(=O)[C@H](CCC(=O)O)NC(=O)[C@H](CCC(=O)O)NC(=O)[C@H](Cc1ccccc1)NC(=O)[C@H](CC(=O)O)NC(=O)CNC(=O)[C@H](CC(=O)O)NC(=O)[C@H](CC(N)=O)NC(=O)[C@H](Cc1c[nH]cn1)NC(=O)[C@H](CO)NC(=O)[C@H](CCC(N)=O)NC(=O)[C@@H]1CCCN1C(=O)[C@H](CCCNC(=N)N)NC(=O)[C@@H]1CCCN1C(=O)[C@H](CC(N)=O)NC(=O)[C@@H](N)Cc1ccccc1)C(=O)N1CCC[C@H]1C(=O)N[C@@H](CCC(=O)O)C(=O)N[C@@H](CCC(=O)O)C(=O)N[C@@H](Cc1ccc(O)cc1)C(=O)N[C@@H](CC(C)C)C(=O)N[C@@H](CCC(N)=O)C(=O)O [FN22^(a)]
- IC50 (human α-thrombin [3]): 150 ± 15 nM
- Ki (human α-thrombin [4]; [8]): 100 ± 10 nM

Compound: CC[C@H](C)[C@H](NC(=O)[C@H](CCC(=O)O)NC(=O)[C@H](CCC(=O)O)NC(=O)[C@H](Cc1ccccc1)NC(=O)[C@H](CC(=O)O)NC(=O)CNC(=O)[C@H](CC(=O)O)NC(=O)[C@H](CC(N)=O)NC(=O)[C@H](Cc1c[nH]cn1)NC(=O)[C@H](CO)NC(=O)[C@H](CCC(N)=O)NC(=O)[C@@H]1CCCN1C(=O)[C@H](CCCNC(=N)N)NC(=O)[C@@H]1CCCN1C(=O)[C@H](CC(N)=O)NC(=O)[C@@H](N)Cc1ccccc1)C(=O)N1CCC[C@H]1C(=O)N[C@@H](CCC(=O)O)C(=O)N[C@@H](CCC(=O)O)C(=O)N[C@@H](Cc1ccc(O)cc1)C(=O)N[C@@H](CC(C)C)C(=O)N[C@@H](CCC(N)=O)C(=O)O [FN22]
- Ki (human α-thrombin [4]; [8]): 80 ± 10 nM
- kcat in the presence of the peptide (human α-thrombin [4]; FN22 at 80 μM, 130 without peptide): 115 s⁻¹
- mode of inhibition (human α-thrombin [4]; substrate concentrations near the KM): competitive
- peptide cleaved by thrombin (human α-thrombin [5]; 2.0 μM peptide, 2.0 μM human α-thrombin, 25° C., after 40 hours): about 30%
- reduction of clotting time compared to the control (human α-thrombin [6]; peptide 400 nM premixed with thrombin): 41%

Compound: CC[C@H](C)[C@H](NC(=O)[C@H](CCC(=O)O)NC(=O)[C@H](CCC(=O)O)NC(=O)[C@H](Cc1ccccc1)NC(=O)[C@H](CC(=O)O)NC(=O)CNC(=O)[C@H](CC(=O)O)NC(=O)[C@H](CC(N)=O)NC(=O)[C@H](Cc1c[nH]cn1)NC(=O)[C@H](CO)NC(=O)[C@H](CCC(N)=O)NC(=O)[C@@H]1CCCN1C(=O)[C@H](CCCNC(=N)N)NC(=O)[C@@H]1CCCN1C(=O)[C@H](CC(=O)O)NC(=O)[C@@H](N)Cc1ccccc1)C(=O)N1CCC[C@H]1C(=O)N[C@@H](CCC(=O)O)C(=O)N[C@@H](CCC(=O)O)C(=O)N[C@@H](Cc1ccc(O)cc1)C(=O)N[C@@H](CC(C)C)C(=O)N[C@@H](CCC(N)=O)C(=O)O [FD22]
- IC50 (human α-thrombin [3]): ~50 nM and 45 nM and ~45 nM
- Ki (human α-thrombin [4]; [8]): ~55 nM
- intact peptide remaining (human α-thrombin [5]; incubated with thrombin at 25° C. for 40 hrs): around 90%
- reduction of clotting time (human α-thrombin [6]; peptide 100 nM premixed with thrombin): 12%
- incubation time until complete digestion at the Arg(P1)-Pro(P1′) bond (human α-thrombin [7]): more than 60 hrs

Compound: WDPRPQRHNDGDFEPIPEEYLQ [WD22-R-P]
- IC50 (human α-thrombin [3]): ~6.7 nM and 6.7 nM
- Ki (human α-thrombin [4]): 171 ± 12 nM

Compound: FDPRPGGGGCNGDFEEIPEEYL [FD21-4GN]
- IC50 (human α-thrombin [3]; peptide concentration doubling the clotting time (DCT), 37° C., '>' values: no delay in clotting time up to the concentration shown, read-out: Clotting assay, 37° C. (IC50)): 208 ± 8 nM
- Ki (human α-thrombin [4]; read-out: Amidolytic assay, 25° C. (Ki), Tos-Gly-Pro-Arg-pNA, 25° C.): 300 ± 20 nM
